# Patent US20250145715A1, “B7-H3 TARGETING FUSION PROTEINS AND METHODS OF USE THEREOF” (GT Biopharma, Inc., priority 2021, published 2025)
# Test system: NK cells (CD45+CD56+CD3−) in PBMCs, with or without OVCAR8
# Experiment: Mass cytometry (CyTOF) of TriKE activated NK cells
# Assay type: cell-based, human
# Protocol: FIG. 31 illustrates high dimensional analysis of cam1615B7-H3 activated NK cells. Concatenated analysis of three donors PBMCs incubated alone, with 30 nM cam1615B7-H3 TriKE, with OVCAR8 tumor (2:1 E:T), or with 30 nM cam1615B7-H3 TriKE and OVCAR8 tumor. Data was visualized in viSNE (Cytobank) and gated on CD45+CD56+CD3-cells.
# For mass cytometry (CyTOF) studies, PBMCs were incubated alone or with OVCAR8s at a 2:1 ratio+/−cam1615B7-H3 (30 nM) for 24 h. After harvesting samples, cells were counted, and viability was measured using trypan blue exclusion. Two hundred thousand cells from each donor were aliquoted into 5-mL polystyrene U-bottom tubes for barcoding and CyTOF staining. Cells were stained with Cisplatin (Fluidigm Product #201064, San Francisco, CA, USA), followed by barcoding using the Cell-ID 20-Plex Pd Barcoding Kit (Fluidigm Product #201060). After barcoding, all cells were combined into a single 5-mL polystyrene U-bottom tube and incubated in the surface marker antibody cocktail for 30 min at 4° C.
# Following surface staining, cells were then fixed using 2% PFA. For intracellular staining, cells were permeabilized by incubation with Triton X 0.1% for 5 min at room temperature, followed by incubation with intracellular antibody cocktail for 30 min at 4° C. Stained cells were then incubated overnight with Cell-ID Intercalator (Fluidigm Product #201192A). The following morning cells were washed and run on the CyTOF 2 instrument. Wash steps were completed using either Maxpar PBS (Fluidigm Product #201058), Maxpar Cell Staining Buffer (Fluidigm Product #201068), or Millipure Water at 1600 RPM for 4 min. For custom tagged antibodies: Conjugation of heavy metals to a specific ScFv is conducted using the Maxpar antibody labeling kit (Fluidigm). The protocol involves partial antibody reduction using 0.5 M TCEP: Pierce Bond-Breaker TCEP Solution (Thermo Scientific Product #77720, Waltham, MA, USA), as well as comprehensive buffer exchange using centrifugal filter units of both 3 kDa and 50 kDa size (Millipore Product #UFC500396, UFC505096, Burlington, MA, USA). After conjugation of the antibody, yield is measured, and the final reagent is stored in antibody stabilizer (Boca Scientific Product #131 000, Westwood, MA, USA). The reagent is then titrated and verified against known flow cytometry antibodies. Data from the three donors was concatenated. FCS file concatenation was completed with a combination of Cytobank and Flowjo. All Visne analyses were carried out in Cytobank.
# As illustrated in FIG. 31 high dimensional analysis of cam1615B7-H3 TriKE activated cells was performed. To broadly evaluate the phenotypic and functional effects of TriKE activation on NK cells, a custom, 42 parameter, CyTOF (mass cytometry) NK cell targeted panel was used. PBMCs were left untreated, incubated with cam1615B7-H3 TriKE for 24 h, incubated with tumor (OVCAR8s) for 24 h, or incubated with tumor and cam1615B7-H3 TriKE for 24 h. Cells were then stained, fixed, and run on a CyTOF2. Samples (three biologic replicates per condition) were concatenated, and data was visualized with viSNE, which uses all expression information to display localization of individual cells in a 2D plot in order to explore the multidimensional data (FIG. 31). The data indicated no changes in distributions of CD56^brights versus CD56^dims. Activation markers CD25 and CD69 were both induced with TriKE treatment, as was the chemokine receptor CXCR3. Granzyme B, involved in cytolytic activity of NK cells, was primed on effectors+TriKE, but in the presence of tumor targets (effectors+tumor+TriKE) these Granzyme B high cells disappeared, likely as a cause of ADCC driven specific degranulation. […] This also seemed to be the case with NKG2D, but the natural cytotoxicity receptors (NCR: NKp30, NKp44, and NKp46) were less affected.
# [1] = effectors exposed to tumor in the presence of TriKE
substance,measurement,setting,value
"cam1615B7-H3: second-generation TriKE: humanized camelid anti-CD16 VHH, human wild-type IL-15, anti-B7-H3 mAb 376.96 scFv; SEQ ID NO:1",distributions of CD56brights versus CD56dims,"30 nM, 24 h",no changes
same,CD25 expression,"30 nM, 24 h, TriKE treatment",induced
same,CD69 expression,"30 nM, 24 h, TriKE treatment",induced
same,CXCR3 expression,"30 nM, 24 h, TriKE treatment",induced
same,TIGIT,[1],did not seem as affected
same,activating KIR (KIR2DS1 and KIR2DS4) expression,[1],reduced in expression
same,"inhibitory KIR (KIR2DL1, KIR2DL3 and KIR3DL1) expression",[1],reduced in expression
same,"natural cytotoxicity receptors (NKp30, NKp44, NKp46)",[1],less affected
same,Granzyme B,effectors+TriKE,primed
same,Granzyme B high cells,effectors+tumor+TriKE,disappeared
